Assay results published in US20130065897A1, “COMPOUNDS, PREPARATION AND USES THEREOF” (PETER MACCALLUM CANCER INSTITUTE, priority 2009, published 2013).
Read-outs that look alike come from different tables or passages of the source.

Legend:
Type in all cases: cell-based
[1] = tested on: KHYG-1 NK cell-mediated lysis of K562 cells; assay: Inhibition of KHYG-1 NK cell-mediated lysis of K562 cells (51Cr release); details: K562 target cells, Effector:Target 2:1, 4 hours 37° C.
Protocol: Inhibition of KHYG-1 NK Cell-Mediated lysis of K562 Cells
KHYG-1 cells were washed and resuspended in RPMI+0.1% BSA at 4×10^5 cells/ml and 50 μl of KHYG-1 cells were dispensed to each well of a 96-well V-bottom, plate. Test compounds were added to KHYG-1 cells at various concentrations up to 20 μM and incubated at RT for 20 minutes. 1×10^6 K562 target cells were labelled with 75 μCi ^51Cr in 200 μl RPMI for 90 mins at 37° C., cells were washed as described above and resuspended in 5 ml RPMI+0.1% BSA. 50 μl of ^51Cr labelled K562 leukemia target cells were added to each well of the KHYG-1 plate (Effector:Target 2:1) and incubated at 37° C. for 4 hours. ^51Cr release was assayed using a Skatron Harvesting Press and radioactivity estimated on a Wallac Wizard 1470 Automatic Gamma counter (Turku, Finland). The percentage of specific cytotoxicity was calculated by the formula: […]
and expressed as the mean of triplicate assays +/−standard error of the mean.

[2] = molecular target: recombinant perforin (UniProt P10820)
Protocol: Inhibition of Perforin-Mediated Lysis of Jurkat Cells
The ability of the compounds to inhibit the lysis of nucleated (Jurkat T lymphoma) cells in the presence of 0.1% BSA, as measured by release of ^51Cr was measured. Jurkat target cells were labelled by incubation in medium with 100 μCi ^51Cr for one hour. The cells were then washed three times to remove unincorporated isotope and re-suspended at 1×10^5 cells per mL in RPMI buffer supplemented with 0.1% BSA. […] The supernatant was collected and assessed for its radioactive content on a gamma counter (Wallac Wizard 1470 automatic gamma counter). Each data point was performed in triplicate and an IC50 was calculated from the range of concentrations described to above.

[3] = tested on: KHYG-1 NK cells; assay: Toxicity to KHYG-1 NK cells (trypan blue viability); details: viable cells as percentage of total (% viability), 18 to 24 hours
Protocol: Toxicity to KHYG-1 NK Cells
KHYG-1 cells were washed and resuspended in RPMI+0.1% BSA at 4×10^5 cells/ml and 50 μl of KHYG-1 cells were dispensed to each well of a 96-well V-bottom plate. Test compounds were added to KHYG-1 cells at a concentration of 20 μM and incubated at RT for 20 minutes. 100 μL of RPMI 0.1% BSA was added and the cells were incubated for 4 hours at 37° C. then washed ×3 in RPMI+0.1% BSA. Cells were then resuspended in 200 μl of complete medium and incubated for 18 to 24 hours at 37° C. Trypan blue was added to each well and viable (clear) cells counted as a percentage of total (clear+blue) cell number (% viability).

[4] = read-out: Jurkat IC50; recombinant perforin pre-incubated 30 min with compound; 51Cr-labelled Jurkat cells, 0.1% BSA, 37° C. 4 hours
[5] = recombinant perforin pre-incubated 30 min with compound; 51Cr-labelled Jurkat cells, 0.1% BSA, 37° C. 4 hours; read-out: Jurkat IC50

Chain of recombinant perforin (P10820 whole entry): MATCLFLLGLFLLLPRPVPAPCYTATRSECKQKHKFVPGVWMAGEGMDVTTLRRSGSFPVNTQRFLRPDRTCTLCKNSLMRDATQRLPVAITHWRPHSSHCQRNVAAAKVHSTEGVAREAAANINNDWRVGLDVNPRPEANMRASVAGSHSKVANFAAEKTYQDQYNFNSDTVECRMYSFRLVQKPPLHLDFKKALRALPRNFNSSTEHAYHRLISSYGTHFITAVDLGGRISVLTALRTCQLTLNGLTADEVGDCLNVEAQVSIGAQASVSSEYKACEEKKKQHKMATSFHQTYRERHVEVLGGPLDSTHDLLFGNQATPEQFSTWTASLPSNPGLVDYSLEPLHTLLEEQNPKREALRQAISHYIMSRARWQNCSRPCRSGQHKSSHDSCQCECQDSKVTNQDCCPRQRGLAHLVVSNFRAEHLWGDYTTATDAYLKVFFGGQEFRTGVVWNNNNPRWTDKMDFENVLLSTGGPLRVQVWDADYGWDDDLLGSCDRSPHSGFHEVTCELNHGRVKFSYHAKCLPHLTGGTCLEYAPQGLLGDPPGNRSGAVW

Row | SMILES | inhibition at 20 µM [1] [%] | IC50 [2, 4] [µM] | percent viable KHYG-1 cells (trypan blue) at 20 μM [3] [%] | Inhibition of KHYG-1 at 20 μM [1] [%] | IC50 [2, 5] [µM]
1 | O=C1NC(=S)N/C1=C/c1ccc(-c2ccc3c(c2)COC3=O)s1 [Cmpd 2, (E,Z)-5-((5-(1-Oxo-1,3-dihydroisobenzofuran-5-yl)thiophen-2-yl)methylene)-2-thioxoimidazolidin-4-one] | 52 | 0.76 | 83 | – | –
2 | CCOC(=O)N1Cc2cc(-c3ccc(/C=C4/NC(=S)NC4=O)s3)ccc2C1=O [Cmpd 65, (E,Z)-Ethyl 1-oxo-5-(5-((5-oxo-2-thioxoimidazolidin-4-ylidene)methyl)thiophen-2-yl)isoindoline-2-carboxylate] | 72 | 0.99 | 96 | – | –
3 | O=C1NC(=S)N/C1=C/c1ccc(-c2ccc3c(c2)CNC3=O)s1 [Cmpd 46, (E,Z)-5-(5-((5-Oxo-2-thioxoimidazolidin-4-ylidene)methyl)thiophen-2-yl)isoindolin-1-one] | 70 | 2.55 | 98 | – | –
4 | O=C1NC(=S)N/C1=C\c1ccc(-c2ccc3c(c2)CNC3=O)cn1 [Cmpd 51, (E,Z)-5-(6((5-Oxo-2-thioxoimidazolidin-4-ylidene)methyl)pyridin-3-yl)isoindolin-1-one] | 19 | 0.63 | 97 | – | –
5 | NC(=O)c1ccc(-c2ccc(/C=C3/NC(=S)NC3=O)s2)cc1 [Cmpd 16, (E,Z)-4-(5-((5-oxo-2-thioxoimidazolidin-4-ylidene)methyl)thiophen-2-yl)benzamide] | 80 | 1.56 | 52 | – | –
6 | CCCN1Cc2cc(-c3ccc(/C=C4/NC(=S)NC4=O)s3)ccc2C1=O [Cmpd 63, (E,Z)-5-(5-((5-Oxo-2-thioxoimidazolidin-4-ylidene)methyl)thiophen-2-yl)-2-propylisoindolin-1-one] | 95 | 1.52 | 94 | – | –
7 | CC(=O)N1Cc2cc(-c3ccc(/C=C4/NC(=S)NC4=O)s3)ccc2C1=O [Cmpd 66, (E,Z)-2-Acetyl-5-(5-((5-oxo-2-thioxoimidazolidin-4-ylidene)methyl)thiophen-2-yl)isoindolin-1-one] | 49 | 0.93 | 85 | – | –
8 | CC(O)CNC(=O)c1ccc(-c2ccc(/C=C3/NC(=S)NC3=O)s2)cc1 (stereo not drawn) [Cmpd 41, (E,Z)-N-(2-Hydroxypropyl)-4-(5-((5-oxo-2-thioxoimidazolidin-4-ylidene)methyl)thiophen-2-yl)benzamide] | 60 | 6.5 | 91 | – | –
9 | CN1CCc2ccc(-c3ccc(/C=C4\NC(=S)NC4=O)s3)cc2C1=O [Cmpd 83, (E,Z)-2-Methyl-7-(5-((5-oxo-2-thioxoimidazolidin-4-ylidene)methyl)thiophen-2-yl)-3,4-dihydroisoquinolin-1(2H)-one] | 91 | 4.76 | – | – | –
10 | CCN1Cc2cc(-c3ccc(/C=C4/NC(=S)NC4=O)s3)ccc2C1=O [Cmpd 62, (E,Z)-2-Ethyl-5-(5-((5-oxo-2-thioxoimidazolidin-4-ylidene)methyl)thiophen-2-yl)isoindolin-1-one] | 84 | 0.6 | 79 | – | –
11 | O=C1NC(=S)N/C1=C/c1ccc2cc(-c3ccc4c(c3)COC4=O)ccc2n1 [Cmpd 14, (E,Z)-5-((6-(1-Oxo-1,3-dihydroisobenzofuran-5-yl)quinolin-2-yl)methylene)-2-thioxoimidazolidin-4-one] | – | – | 81 | 56 | 0.47
12 | O=C1NC(=S)N/C1=C/c1ccc(-c2ccc3c(c2)CN(CC(O)CO)C3=O)s1 (stereo not drawn) [Cmpd 78, (E,Z)-2-(2,3-Dihydroxypropyl)-5-(5-((5-oxo-2-thioxoimidazolidin-4-ylidene)methyl)thiophen-2-yl)isoindolin-1-one] | 19 | 1.26 | – | – | –
13 | O=C1NC(=S)N/C1=C/c1ccc(-c2ccc3c(c2)CN(CCCN2CCCC2)C3=O)s1 [Cmpd 77, (E,Z)-5-(5((5-Oxo-2-thioxoimidazolidin-4-ylidene)methyl)thiophen-2-yl)-2-(3-(pyrrolidin-1-yl)propyl)isoindolin-1-one] | 81 | > 20 | 80 | – | –
14 | CS(=O)(=O)Nc1ccc(-c2ccc(/C=C3/NC(=S)NC3=O)s2)cc1 [Cmpd 33, (E,Z)-N-(4-(5-((5-Oxo-2-thioxoimidazolidin-4-ylidene)methyl)thiophen-2-yl)phenyl)methanesulfonamide] | 32 | 7.7 | – | – | –
15 | CC1c2cc(-c3ccc(/C=C4/NC(=S)NC4=O)s3)ccc2C(=O)N1C (stereo not drawn) [Cmpd 69, (E,Z)-2,3-Dimethyl-5-(5-((5-oxo-2-thioxoimidazolidin-4-ylidene)methyl)thiophen-2-yl)isoindolin-1-one] | 100 | 3.21 | 95 | – | –
16 | CN1Cc2cc(-c3ccc(/C=C4/NC(=S)NC4=O)s3)ccc2C1=O [Cmpd 61, (E,Z)-2-Methyl-5-(5-((5-oxo-2-thioxoimidazolidin-4-ylidene)methyl)thiophen-2-yl)isoindolin-1-one] | 83 | – | 76 | – | –
17 | CSc1ccc(-c2ccc(/C=C3/NC(=S)NC3=O)s2)cc1 [Cmpd 27] | 43 | 1.15 | 83 | – | –
18 | O=C1NC(=S)N/C1=C/c1ccc(-c2ccc(F)c(F)c2)s1 [Cmpd 30, (E,Z)-5-((5-(3,4-Difluorophenyl)thiophen-2-yl)methylene)-2-thioxoimidazolidin-4-one] | – | 4.59 | – | – | –
19 | CS(=O)(=O)c1ccc(-c2ccc(/C=C3/NC(=S)NC3=O)s2)cc1 [Cmpd 28, (E,Z)-5-((5-(4-(Methylsulfonyl)phenyl)thiophen-2-yl)methylene)-2-thioxoimidazolidin-4-one] | – | 13.8 | – | – | –
20 | CN1CCc2cc(-c3ccc(/C=C4\NC(=S)NC4=O)s3)ccc2C1=O [Cmpd 84, (E,Z)-2-Methyl-6-(5-((5-oxo-2-thioxoimidazolidin-4-ylidene)methyl)thiophen-2-yl)-3,4-dihydroisoquinolin-1(2H)-one] | 72 | 2.33 | – | – | –
21 | O=C1NC(=S)N/C1=C/c1ccc(-c2ccc(C(=O)NCCO)cc2)s1 [Cmpd 42, (E,Z)-N-(2-Hydroxyethyl)-4-(5-((5-oxo-2-thioxoimidazolidin-4-ylidene)methyl)thiophen-2-yl)benzamide] | 42 | 3.64 | – | – | –
22 | O=C1NC(=S)N/C1=C/c1ccc(-c2ccncc2)s1 [Cmpd 25, (E,Z)-5-((5-(Pyridin-4-yl)thiophen-2-yl)methylene)-2-thioxoimidazolidin-4-one] | – | 10.1 | – | – | –
23 | O=C1NC(=S)N/C1=C/c1ccc(-c2cccc(F)c2)s1 [Cmpd 31, (E,Z)-5-((5-(3-Fluorophenyl)thiophen-2-yl)methylene)-2-thioxoimidazolidin-4-one] | – | 10.8 | – | – | –
24 | O=C1NC(=S)N/C1=C/c1ccc(-c2ccc3c(c2)COC3=O)cn1 [Cmpd 7] | – | – | – | – | 2
25 | O=C1NC(=S)NC1=Cc1ccc(-c2ccc3c(c2)CNC3=O)cc1 [Cmpd 48, (E,Z)-5-(4-((5-Oxo-2-thioxoimidazolidin-4-ylidene)methyl)phenyl)isoindolin-1-one] | 16 | 5.55 | – | – | –
26 | COC(=O)c1ccc(-c2ccc(/C=C3/NC(=S)NC3=O)s2)cc1C [Cmpd 21, (E,Z)-Methyl 2-methyl-4-(5-((5-oxo-2-thioxoimidazolidin-4-ylidene)methyl)thiophen-2-yl)benzoate] | 92 | 3.03 | – | – | –
27 | O=C1NC(=S)N/C1=C/c1ccc(-c2ccc(C(=O)NCCCO)cc2)s1 [Cmpd 44, (E,Z)-N-(3-Hydroxypropyl)-4-(5-((5-oxo-2-thioxoimidazolidin-4-ylidene)methyl)thiophen-2-yl)benzamide] | 52 | 4.35 | – | – | –
28 | O=C1NC(=S)N/C1=C/c1ccc(-c2ccc(F)cc2)s1 [Cmpd 29, (E,Z)-5-((5-(4-Fluorophenyl)thiophen-2-yl)methylene)-2-thioxoimidazolidin-4-one] | – | 6.69 | – | – | –
